Reference: US20160355782A1, “METHOD FOR ENHANCING DIFFERENTIATION OF DOPAMINERGIC NEURONS” (Buddhist Tzu Chi Medical Foundation, priority 2015, published 2016)

Tests used:
Format in all cases: cell-based, rat
[1] = test system: acetylated histone H3 (Ac-H3); assay: Histone H3 acetylation (Western blot, immuno-staining) in VM precursor cultures
Method: For immuno-cytochemistry, cells were fixed with 4% paraformaldehyde followed by blocking with PBS containing 0.4% Triton X-100, 3% normal goat serum and 2% bovine serum albumin (BSA) for 1 h at room temperature. After blocking, cells were incubated overnight at room temperature with primary antibodies. Primary antibodies were rabbit anti-UCN (1:200), mouse anti-TH (1:2000) (both from Sigma-Aldrich), goat anti-CRHR1 (1:100), rabbit anti-CRHR2 (1:250), rat anti-dopamine transporter (DAT, 1:200), chicken anti-MAP2 (1:5000) (all from Abcam, Cambridge, Mass.), rabbit anti-Nurr1 (1:100, Santa Cruz Biotechnology), mouse anti-Nurr1 (1:100, R&D Systems, Minneapolis, Minn.), rabbit anti-TH (1:1000), mouse anti-NeuN (1:200) (both from Chemicon, Temecula, Calif.), rabbit anti-acetyl-histone H3 (1:1000, Upstate Biotechnology, Lake Placid, N.Y.), rabbit anti-Foxa2 (1:500, Cell Signaling Technology), and rabbit anti-Pitx3 (1:100, Invitrogen).
For Western blot analysis, VM precursor cells were lysed in M-PER® Mammalian Protein Extraction Reagent (Pierce). Protein concentration was determined by Bradford assay (Bio-Rad, Hercules, Calif.). 30˜50 μg of protein sample was separated on 10˜12% sodium dodecyl sulphate-polyacrylamide gel (SDS-PAGE) and transferred to immobilon polyvinylidene difluoride (PVDF) membranes (Merck Millipore). The membranes were incubated in Tris-buffered saline (TBST, 0.1 M Tris/HCl, pH 7.4, 0.9% NaCl, 0.1% Tween 20) supplemented with 5% non-fat dry milk for 1 h to block nonspecific binding. […] The antigen-antibody complex was detected by using an ECL chemi-luminescence detection system (PerkinElmer, Boston, Mass.). The intensity of the bands was quantified with a GS-800 calibrated densitometer (Bio-Rad), and calculated as the optical density X area of bands.

[2] = test system: Nurr1-transduced cortical NPCs; assay: DA uptake assay in Nurr1-transduced cortical NPCs; conditions: 0.5 μM UCN, 4 days
Method: For lenti-viral transduction, E13 cortical NPCs were incubated with lenti-viruses (25 multiplicity of infection) expressing Nurr1 or GFP containing poly-brene (hexadimethrine bromide, 1 μg/mL, Sigma-Aldrich) for 24 hours. After 1 day of further cell expansion in the presence of the mitogens, cells were induced to differentiate.
For DA uptake assay, cells were washed twice with warm Krebs-Ringer buffer (16 mM sodium phosphate, 119 mM NaCl, 4.7 mM KCl, 1.8 mM CaCl2, 1.2 mM MgSO4, 1.3 mM EDTA and 5.6 mM glucose, pH 7.4), and then incubated with 1 μM [^3H]-dopamine(DA)(60 Ci/mmol, PerkinElmer) in Krebs-Ringer buffer at 37° C. for 20 min. After washing with ice-cold Krebs-Ringer buffer, cells were collected in 1 N NaOH and radioactivity was counted with a liquid scintillation counter. Non-specific uptake was determined in parallel wells that received both the tritiated tracer and 10 μM mazindol. The specific [^3H] DA were calculated by subtracting the amount of radioactivity obtained in the presence of mazindol from that obtained in the absence of mazindol.

[3] = test system: midbrain explants; assay: Midbrain explant cultures, TH+ cell numbers; conditions: UCN, 3 days
Method: Midbrain explants were dissected from E13.5 embryos by the method known by a person skilled in the art, for example as the protocol described by Baizabal and Covarrubias (2009) and performed with some modifications.
The dorsal midline of the explants was cut and the tissue was placed on porous (0.4 μm) transparent membrane inserts (25-mm in diameter, Nunc, Roskilde, Denmark) with the ventricular surface facing up. Inserts were then placed into six-well culture plates. Each well contained 1.5 mL of MEM medium supplemented with 10% FBS, 100 U/mL penicillin, and 100 μg/mL streptomycin. Explants were incubated at 37° C. with 5% CO2 for 4 hours, after which the explants were incubated in a serum-free DMEM/F12/N2 medium with or without UCN for 3 days. Midbrain explants were then fixed with 4% paraformaldehyde and immuno-histochemical analysis was performed.

[4] = test system: VM precursor cultures; assay: Real-time RT-PCR analysis of VM precursor cultures
Method: Briefly, ventral mesencephalic tissues were dissected from E14.5 Sprague-Dawley (SD) rats, and then dissociated enzymatically (0.1% trypsin) and mechanically. Cells were seeded into 24-well (1×10^5/cm^2) culture plates pre-coated with 20 μg/mL poly-D-lysine (Sigma-Aldrich), and were maintained in 0.5 mL/well of minimum essential medium (MEM) supplemented with 10% fetal bovine serum (FBS), 10% horse serum (HS), 1 g/L glucose, 2 mM L-glutamine, 1 mM sodium pyruvate, 100 μM nonessential amino acids, 100 U/mL penicillin, and 100 μg/mL streptomycin (all purchased from Invitrogen). Cultures were maintained at 37° C. in a humidified atmosphere of 5% CO2 and 95% air. For DA neuron differentiation, VM precursor cultures, four hours after seeding, were switched to Dulbecco's Modified Eagle's Medium (DMEM)/Ham's F12 (1:1) containing N2 supplement (Invitrogen, Carlsbad, Calif.), penicillin and streptomycin. Immediately following the switch to DMEM/F12 medium, VM precursor cells were treated with various concentration of rat UCN (from Sigma-Aldrich, St. Louis, Mo.) for the indicated periods. For neutralization of endogenous UCN bioactivity, anti-UCN antibody (15 μg/mL) (Santa Cruz Biotechnology, Santa Cruz, Calif.) was added to the VM precursor cultures.
Total RNA was extracted from VM tissues or cultured VM precursors with TRIzol® reagent (Invitrogen). One-step real-time RT-PCR analysis was performed to determine the expression of genes (Power SYBR® Green RNA-to-CT™ 1-step kit, Applied Biosystems, Foster City, Calif.). Threshold cycle (CO value for each test gene was normalized to the Ct value for the β-actin control from the same RNA preparations. The ratio of transcription of each gene was calculated as 2^−(ΔCt), where ΔCt is the difference Cr (test gene)−Ct (β-actin). The primers used herein are listed in Table 1.

## Urocortin [UCN]
[1]; 1 μM UCN, 1 hour
  Ac-H3-immuno-reactivity in non- or Nurr1-expressing cells: increased
[1]; 1 μM UCN, within minutes
  levels of Ac-H3 (Western blot): significantly increases
[1]; single application of UCN
  duration of histone H3 acetylation: at least 48 hours
[2]
  DA neuronal function as assessed by DA uptake: increased DA neuronal function
[3]
  number of TH+ cells in midbrain explants: increases
[4]; 1 μM UCN, 4 days
  L-aromatic amino acid decarboxylase (AADC) mRNA: trends were found for increased
  dopamine transporter (DAT) mRNA: trends were found for increased
[4]; UCN
  Foxa2 mRNA expression: upregulated
  Nurr1 mRNA expression: upregulated
  Pitx3 mRNA expression: upregulated
[4]; UCN vs control medium
  TH mRNA expression: significantly elevated
  mRNA expression specific for GABAergic neurons (GAD67): no effect
  mRNA expression specific for glutamatergic neurons (VGULT1): no effect
  mRNA expression specific for serotonergic neurons (SERT): no effect
